Experiments:
[1] = PAMPA-BBB test; format: in vitro ADME; conditions: PAMPA-BBB; for Papp at 2.5 h / Pe exp: PBS pH 7.4/DMSO 95/5, 2.5 h, room temperature; for Papp at 2.5 h: read-out: Pe exp
Experimental: dissolved in 250 µL of DMSO (Sigma-Aldrich). 25 µL of these compound stock
solutions were taken and 225 µL of DMSO and 4750 µL of PBS pH 7.4 buffer
compound concentration in the range of 0.2 to 1.1 mM. Compounds to be
µL of DMSO and 4750 µL of PBS pH 7.4 was carefully added to afford a final
compound concentration in the range of 0.2 to 1.1 mM. Solutions were filtered
using filter PDVF membrane units (diameter 30 mm, pore size 0.45 μm, Symta).
10 µL of each solution were taken and diluted 10-fold with PBS/DMSO (95/5) for
HPLC-MS analysis. The acceptor 96-well plate (Multiscreen®, catalog no.
MAMCS9610, Millipore) was filled with 180 µL of PBS/DMSO (95/5). The donor
96-well plate (Multiscreen® IP Sterile Plate PDVF membrane, pore size is 0.45
M, catalog no. MAIPS4510, Millipore) was coated with 4 µL 20 mg·mL-1 of
for 5 min and then 180 µL of each compound solution was added. Then the donor
plate was put on the acceptor plate and kept for 2.5 h at room temperature. After
incubation, samples were collected from the acceptor plate and diluted 10-fold
with PBS/DMSO (95/5) for HPLC-MS analysis and compared to HPLC-MS of
initial solutions. Absorbance peak of each compound was determined by MS
detection and was used to calculate the concentration of compounds and
Every sample was analysed in two independent
runs. HPLC-MS was performed using a HPLC-MS equipment from Thermo
Fisher coupled to a Finnigan TM LXQ TM detector. Each compound was
analysed using a Sunfire column C18, 3.5 μm (50 mm x 4.6 mm) and acetonitrile
and Milli-Q water (with 0.1% formic acid) as mobile phase. The standard gradient

[2] = target: CK1δ (Homo sapiens, UniProt P48730); assay: CK1δ inhibition enzymatic assay (Kinase-Glo); format: biochemical
Experimental: CK1δ inhibition enzymatic assay. The “Kinase-Glo” Kit from Promega was used to screen compounds for activity against CK1δ Kinase-Glo assays were performed in assay buffer using black 96-well plates. In a typical assay, 10 μl of test compound (dissolved in DMSO at 1 mM concentration and diluted in advance in assay buffer to the desired concentration) 10 μl (16 ng) of enzyme were added to each well followed by 20 µl of assay buffer containing 0,1 % casein as substrate […]
exceed 1%. After 60-min incubation at 30°C the enzymatic reaction was stopped […]
with 40 μl of Kinase-Glo reagent. Glow-type luminescence was recorded after 10 min using a FLUOstar Optima (BMG Labtechnologies GmbH, Offenburg, Germany) multimode reader. The activity is proportional to the difference of the total and consumed ATP. The inhibitory activities were calculated on the basis of maximal activities measured in the absence of inhibitor. The IC50 was defined as the concentration of each compound that reduces a 50% the enzymatic activity with respect to that without inhibitors. […]
Ibérica SAU). Kinase-Glo Luminescent Kinase Assay was obtained from Promega (Promega Biotech Ibérica, SL). ATP and all other reagents were from Sigma Aldrich (St. Louis, MO). Assay buffer contained 50 mM HEPES (pH 7.5), 1 mM EDTA, 1 mM EGTA, and 15 mM magnesium acetate. […]

[3] = target: BACE1 (Homo sapiens, UniProt P56817); assay: BACE1 enzymatic assay (FRET); format: biochemical
Experimental: BACE1 enzymatic assay. BACE1 in vitro assays were carried out using FRET.
μM) carrying the Swedish mutation and containing a rhodamine as a fluorescence donor and a quencher acceptor at each end was used. The intact substrate is weakly fluorescent and becomes highly fluorescent upon enzymatic cleavage.
The assays were conducted in 50 mM sodium acetate buffer, pH 4.5, in a final

[4] = target: T1, Human recombinant GSK3β (Homo sapiens, UniProt P49841); assay: GSK3β inhibition enzymatic assay (Kinase-Glo); format: biochemical
T1 construct: purchased Millipore (Millipore Ibérica SAU)
Experimental: GSK3β inhibition enzymatic assay. Human recombinant GSK3β and the pre-phosphorylated polypeptide substrate were purchased from Millipore (Millipore Ibérica SAU). Kinase-Glo Luminescent Kinase Assay was obtained from Promega (Promega Biotech Ibérica, SL). ATP and all other reagents were from Sigma Aldrich (St. Louis, MO). Assay buffer contained 50 mM HEPES (pH 7.5), 1 mM EDTA, 1 mM EGTA, and 15 mM magnesium acetate.
Kinase-Glo assays were performed in assay buffer using black 96-well plates. In a typical assay, 10 μL (10 μM) of test compound (dissolved in DMSO) at 1 mM concentration and diluted in advance in assay buffer to the desired concentration) and 10 μL (20 ng) of enzyme were added to each well followed by 20 μL of assay buffer containing 25 μM substrate and 1 μM ATP. The final DMSO concentration […]
After 30 min incubation at 30 °C, the enzymatic reaction was stopped with 40 μL of Kinase-Glo reagent. Glow-type luminescence was recorded after 10 min using a FLUOstar Optima (BMG
Labtechnologies GmbH, Offenburg, Germany) multimode reader. The activity is proportional to the difference of the total and consumed ATP. The inhibitory activities were calculated based on maximal activities measured in the absence of inhibitor. The IC50 was defined as the concentration of each compound that reduces a 50 % the enzymatic activity with respect to that without inhibitors. […]

[5] = design: method as in earlier work; conditions: PAMPA-BBB reported permeability ref 2; cited from earlier work
[6] = target: T2, LRRK2 (Homo sapiens, UniProt Q5S007); assay: LRRK2 inhibition enzymatic assay (Adapta, ThermoFisher); format: biochemical
T2 construct: purchased ThermoFisher (assay run by the company)

[7] = system: SK-APP cells; assay: Aβ40 and Aβ42 levels in SK-APP cells (sandwich ELISA); format: cell-based, human; conditions: 10 μM, 48 h treatment
Experimental: page 35: enzyme concentration (1 U/mL). Inhibitor screening at 10 μM. The mixture was incubated for 60 min at 25 °C under dark conditions and then stopped with 2.5 M sodium acetate. Fluorescence was measured with a FLUOstar Optima (BMG Labtechnologies GmbH, Offenburg, Germany) microplate reader at 545 nm excitation and 585 nm emission. Evaluation of BACE Inhibitors Kinetics. To evaluate the mechanism of BACE1 inhibition of the compounds, substrate-dependent kinetic experiments were performed. BACE activity were measured at five different concentrations substrate (1000 -62,5 μM) in the absence or presence of the select inhibitor at two different concentrations. The results are presented as double reciprocal Lineweaver-Burk plots (1/V vs 1/[S]) Figure S1. Cell culture and treatments. SK-N-MC cells stably expressing the human isoform APP695 (SK-APP cell line […]1) were generated by transfection of SK-N-MC cells with a pCDNA3-APP expression vector, and kindly provided by Dr. MJ Bullido. These cells were cultured in DMEM (Thermo Fisher) medium supplemented with 10% FBS (Thermo Fisher), 1 mM glutamine (Sigma- Aldrich), and 100 unit/ml penicillin (Lonza) and […] streptomycin (Lonza). Cell cultures were maintained in a 5% CO2, humidified atmosphere at 37 °C. SH-SY5Y cells were obtained from the American Type Culture Collection and grown in DMEM media (Gibco), supplemented with 10% foetal bovine serum, and 1% penicillin/streptomycin (Invitrogen). The cells were grown at 37 °C in a humidified 5% CO2 atmosphere. For the treatments, all the compounds were dissolved in dimethyl sulfoxide (DMSO, from Sigma) at an initial stock concentration of 10 mM. […] working solutions were obtained from the dilution of the stock solutions in DMEM media (DMSO control solutions were prepared similarly to the compounds). Okadaic acid (OA, Sigma-Aldrich) was dissolved in DMSO at an initial stock concentration of 60 μM and a 250X working solution was obtained from the dilution of the stock solution in DMEM. All the compounds (250x solutions) were added directly into the wells at the indicated final concentrations for 1 hour before the treatment with OA at a final concentration of 30 nM. DMSO was added at the appropriate concentration to the 34 page 36: control-untreated cells. The cells were maintained in the presence of the OA and the different compounds for 24h. Measurement of cell viability. Cell viability assays were carried out using a 3- […] (Sigma-Aldrich) in 96-well cell culture plates. All cells were then incubated with a 0.5 mg/ml MTT solution (Sigma-Aldrich) at 37 °C for 4 h and then with cell lysis […] The absorbance values were determined at 590 nm. Cell viability was expressed as a percent of OD of control cells, the value of which was defined as 100%. Cell viability in SH-SY5Y were carried out following the same procedure but seeding the cells in 24 well multiplates. Absorbance was measured using a Varioskan Flash multiplate reader (Thermo Scientific) at test 550 nm and reference 664 nm wave-lengths. Compound concentration for SK-APP line was 10 μM and for the SH-SY5Y was 1 and 5 μM. Immunoassays. Levels of Aβ40 and Aβ42 were quantified by sandwich ELISAs (Wako, Osaka, Japan) from cellular lysates and conditioned media collected. CNS penetration: in vitro PAMPA-BBB test. Prediction of the brain penetration was evaluated using a parallel artificial membrane permeability assay (PAMPA).1 Nine quality control compounds (mentioned below) of know BBB permeability were included in each experiment to validate the analysis set.2 Commercial drugs […] dissolved in 250 μL of DMSO (Sigma-Aldrich). 25 μL of these compound stock solutions were taken and 225 μL of DMSO and 4750 μL of PBS pH 7.4 buffer were added to reach 5% of DMSO concentration in the experiment and a final […] Compounds to be determined their ability to pass the brain barrier (0.5-1 mg) were dissolved in 250 μL of DMSO and 4750 μL of PBS pH 7.4 was carefully added to afford a final […]

[8] = system: SH-SY5Y cells; assay: Okadaic acid-induced cell death model, viability of SH-SY5Y cells; format: cell-based, human; conditions: OA 30 nM, 24 h, compound 1 and 5 µM
Experimental: page 35: enzyme concentration (1 U/mL). Inhibitor screening at 10 μM. The mixture was incubated for 60 min at 25 °C under dark conditions and then stopped with 2.5 M sodium acetate. Fluorescence was measured with a FLUOstar Optima (BMG Labtechnologies GmbH, Offenburg, Germany) microplate reader at 545 nm excitation and 585 nm emission. Evaluation of BACE Inhibitors Kinetics. To evaluate the mechanism of BACE1 inhibition of the compounds, substrate-dependent kinetic experiments were performed. BACE activity were measured at five different concentrations substrate (1000 -62,5 μM) in the absence or presence of the select inhibitor at two different concentrations. The results are presented as double reciprocal Lineweaver-Burk plots (1/V vs 1/[S]) Figure S1. Cell culture and treatments. […] The absorbance values were determined at 590 nm. Cell viability was expressed as a percent of OD of control cells, the value of which was defined as 100%. […] Absorbance was measured using a Varioskan Flash multiplate reader (Thermo Scientific) at test 550 nm and reference 664 nm wave-lengths. […] Levels of Aβ40 and Aβ42 were quantified by sandwich ELISAs (Wako, Osaka, Japan) from cellular lysates and conditioned media collected. […] Compounds to be determined their ability to pass the brain barrier (0.5-1 mg) were dissolved in 250 μL of DMSO and 4750 μL of PBS pH 7.4 was carefully added to afford a final […]

Chain of BACE1 (P56817 46-501): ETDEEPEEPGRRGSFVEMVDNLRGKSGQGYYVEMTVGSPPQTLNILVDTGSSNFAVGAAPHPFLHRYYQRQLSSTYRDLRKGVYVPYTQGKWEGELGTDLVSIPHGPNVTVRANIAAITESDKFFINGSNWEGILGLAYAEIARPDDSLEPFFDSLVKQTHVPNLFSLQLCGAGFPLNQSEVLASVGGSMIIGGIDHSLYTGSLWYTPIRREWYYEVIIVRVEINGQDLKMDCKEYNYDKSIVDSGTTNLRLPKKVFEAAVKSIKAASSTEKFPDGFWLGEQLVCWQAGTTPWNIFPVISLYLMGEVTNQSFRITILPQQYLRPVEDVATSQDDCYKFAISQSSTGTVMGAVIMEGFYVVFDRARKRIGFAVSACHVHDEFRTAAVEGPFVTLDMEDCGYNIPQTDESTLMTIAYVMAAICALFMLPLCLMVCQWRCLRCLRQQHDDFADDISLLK
T2 sequence (Q5S007 whole entry): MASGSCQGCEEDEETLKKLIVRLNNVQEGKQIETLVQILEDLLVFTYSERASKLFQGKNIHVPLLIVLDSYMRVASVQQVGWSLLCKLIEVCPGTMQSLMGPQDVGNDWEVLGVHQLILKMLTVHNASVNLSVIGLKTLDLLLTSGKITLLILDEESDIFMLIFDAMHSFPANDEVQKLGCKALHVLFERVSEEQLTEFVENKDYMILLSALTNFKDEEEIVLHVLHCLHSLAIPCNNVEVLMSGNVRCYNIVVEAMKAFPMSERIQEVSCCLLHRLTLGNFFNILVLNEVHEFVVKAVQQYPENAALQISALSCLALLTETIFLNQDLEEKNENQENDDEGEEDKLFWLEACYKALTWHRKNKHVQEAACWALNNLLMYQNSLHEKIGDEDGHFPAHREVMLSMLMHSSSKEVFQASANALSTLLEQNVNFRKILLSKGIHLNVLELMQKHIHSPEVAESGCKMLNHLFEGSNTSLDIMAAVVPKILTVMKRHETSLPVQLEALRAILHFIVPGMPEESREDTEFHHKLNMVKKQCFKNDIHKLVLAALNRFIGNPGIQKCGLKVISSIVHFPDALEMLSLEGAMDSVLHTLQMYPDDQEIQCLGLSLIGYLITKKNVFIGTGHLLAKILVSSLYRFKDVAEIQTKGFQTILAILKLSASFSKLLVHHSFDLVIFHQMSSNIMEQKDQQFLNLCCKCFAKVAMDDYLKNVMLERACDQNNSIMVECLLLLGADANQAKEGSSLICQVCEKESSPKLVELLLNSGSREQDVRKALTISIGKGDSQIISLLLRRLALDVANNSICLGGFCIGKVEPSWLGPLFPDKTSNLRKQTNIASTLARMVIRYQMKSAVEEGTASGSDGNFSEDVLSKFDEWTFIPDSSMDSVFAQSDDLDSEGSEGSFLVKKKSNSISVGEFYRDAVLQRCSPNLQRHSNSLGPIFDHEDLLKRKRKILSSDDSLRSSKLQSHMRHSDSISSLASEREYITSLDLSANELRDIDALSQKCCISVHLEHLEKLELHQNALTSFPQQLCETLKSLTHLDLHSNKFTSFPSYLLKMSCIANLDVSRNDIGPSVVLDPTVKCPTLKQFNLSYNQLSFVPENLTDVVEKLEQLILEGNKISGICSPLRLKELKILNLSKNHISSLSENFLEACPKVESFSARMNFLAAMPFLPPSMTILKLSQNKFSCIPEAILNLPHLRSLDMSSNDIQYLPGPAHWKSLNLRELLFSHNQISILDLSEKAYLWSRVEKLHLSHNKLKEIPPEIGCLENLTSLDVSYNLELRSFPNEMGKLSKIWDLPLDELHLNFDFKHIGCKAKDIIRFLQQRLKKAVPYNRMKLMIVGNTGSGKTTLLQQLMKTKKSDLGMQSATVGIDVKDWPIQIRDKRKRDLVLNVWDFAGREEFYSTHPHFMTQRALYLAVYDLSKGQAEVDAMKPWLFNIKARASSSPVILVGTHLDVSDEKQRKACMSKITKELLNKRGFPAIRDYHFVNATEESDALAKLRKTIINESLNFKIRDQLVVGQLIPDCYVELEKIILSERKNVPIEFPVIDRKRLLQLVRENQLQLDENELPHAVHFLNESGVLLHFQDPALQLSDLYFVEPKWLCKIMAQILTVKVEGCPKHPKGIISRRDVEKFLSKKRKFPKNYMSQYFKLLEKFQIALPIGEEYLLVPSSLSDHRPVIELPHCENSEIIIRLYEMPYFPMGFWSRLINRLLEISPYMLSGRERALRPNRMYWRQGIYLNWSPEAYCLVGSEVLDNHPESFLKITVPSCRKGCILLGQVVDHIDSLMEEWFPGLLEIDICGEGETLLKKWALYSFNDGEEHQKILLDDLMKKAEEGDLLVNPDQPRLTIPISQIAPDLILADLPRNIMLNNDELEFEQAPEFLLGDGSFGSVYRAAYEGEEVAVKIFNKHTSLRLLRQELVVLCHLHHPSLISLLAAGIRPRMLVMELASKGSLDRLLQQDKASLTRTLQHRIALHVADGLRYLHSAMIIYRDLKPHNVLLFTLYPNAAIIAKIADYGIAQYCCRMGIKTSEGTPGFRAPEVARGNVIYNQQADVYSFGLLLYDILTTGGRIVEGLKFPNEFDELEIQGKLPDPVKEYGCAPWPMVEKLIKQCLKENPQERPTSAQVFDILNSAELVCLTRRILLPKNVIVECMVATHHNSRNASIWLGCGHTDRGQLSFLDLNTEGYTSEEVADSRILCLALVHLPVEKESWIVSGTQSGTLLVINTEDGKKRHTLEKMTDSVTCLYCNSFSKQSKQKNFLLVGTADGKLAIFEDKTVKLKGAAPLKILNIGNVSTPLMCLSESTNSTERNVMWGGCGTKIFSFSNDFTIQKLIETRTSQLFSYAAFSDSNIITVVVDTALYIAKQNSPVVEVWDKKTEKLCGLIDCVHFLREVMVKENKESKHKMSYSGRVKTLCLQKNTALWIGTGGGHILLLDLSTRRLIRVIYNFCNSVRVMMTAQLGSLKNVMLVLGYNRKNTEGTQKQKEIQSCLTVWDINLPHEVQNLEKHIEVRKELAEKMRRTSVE
T1 sequence (P49841 whole entry): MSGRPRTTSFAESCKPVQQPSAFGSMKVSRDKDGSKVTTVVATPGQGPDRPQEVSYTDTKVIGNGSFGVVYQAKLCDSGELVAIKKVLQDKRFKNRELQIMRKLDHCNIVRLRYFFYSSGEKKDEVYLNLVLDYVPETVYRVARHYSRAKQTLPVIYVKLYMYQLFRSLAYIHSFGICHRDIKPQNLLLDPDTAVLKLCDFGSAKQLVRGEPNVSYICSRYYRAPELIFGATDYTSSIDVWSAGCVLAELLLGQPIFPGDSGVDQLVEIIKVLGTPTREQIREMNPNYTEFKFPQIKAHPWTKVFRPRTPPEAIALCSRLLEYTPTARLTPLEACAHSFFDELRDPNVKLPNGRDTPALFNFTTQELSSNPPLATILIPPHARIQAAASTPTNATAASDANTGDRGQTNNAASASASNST
Chain of CK1δ (P48730 whole entry): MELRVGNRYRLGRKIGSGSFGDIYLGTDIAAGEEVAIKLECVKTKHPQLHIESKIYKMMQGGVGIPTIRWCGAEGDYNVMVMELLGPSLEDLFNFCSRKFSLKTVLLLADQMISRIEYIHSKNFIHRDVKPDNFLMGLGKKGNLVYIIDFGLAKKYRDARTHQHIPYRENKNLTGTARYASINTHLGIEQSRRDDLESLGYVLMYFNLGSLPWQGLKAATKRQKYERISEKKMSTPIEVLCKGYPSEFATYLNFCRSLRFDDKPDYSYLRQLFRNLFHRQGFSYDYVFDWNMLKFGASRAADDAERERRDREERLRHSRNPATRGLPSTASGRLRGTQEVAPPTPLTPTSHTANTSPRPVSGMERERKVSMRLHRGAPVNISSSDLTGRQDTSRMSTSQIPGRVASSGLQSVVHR

## Cn1c(=O)c2c(ncn2C)n(C)c1=O [Caffeine, caffeine, reference compound]
[1]
  Papp at 2.5 h: 1.45 ± 0.26 ×10⁻⁶ cm/s

## CNCCCN1c2ccccc2CCc2ccccc21 [Desipramine, desipramine, reference compound]
[1]
  Papp at 2.5 h: 7.44 ± 0.9 ×10⁻⁶ cm/s

## CCn1cc(C(=O)O)c(=O)c2cc(F)c(N3CCNCC3)nc21 [Enoxacine, enoxacine, reference compound]
[1]
  Pe exp: 1.41 ± 0.05 10-6 cm s-1

## O=C(Cc1ccccc1)Nc1nc2ccccc2s1 [MBC-858, reference compound]
[2]
  IC50: 330 ± 30 nM
[3]
  IC50: > 20000 nM

## CCn1sc(=O)n(Cc2ccccc2)c1=O [MBC-2138, reference compound]
[4]
  IC50: 530 ± 30 nM
[3]
  IC50: > 20000 nM

## CN1C(C(=O)Nc2ccccn2)=C(O)c2ccccc2S1(=O)=O [Piroxicam, piroxicam, reference compound]
[1]
  Papp at 2.5 h: 2.92 ± 0.37 ×10⁻⁶ cm/s
[5]
  Pe Bibl.: 2.5 10-6 cm s-1

## CN(C)CCCN1c2ccccc2Sc2ccccc21 [Promazine, promazine, reference compound]
[1]
  Papp at 2.5 h: 5.18 ± 0.43 ×10⁻⁶ cm/s
[5]
  Pe Bibl.: 8.8 10-6 cm s-1

## O=C(Nc1nc2ccccc2s1)c1ccc(CSCCCSCc2ccc(C(=O)Nc3nc4ccccc4s3)cc2)cc1 [compound 3]
[6]
  IC50: 1880 nM
[3]
  IC50: 7140 nM

## CCn1sc(=O)n(Cc2cn(Cc3ccc(C(=O)Nc4nc5ccccc5s4)cc3)nn2)c1=O [compound 14]
[6]
  IC50: 820 ± 140 nM
[4]
  IC50: 2360 ± 270 nM
[3]
  IC50: 3310 ± 270 nM
[7]
  Aβ42 levels in cellular lysates (intracellular): unchanged
  Aβ42 levels in extracellular fluid: significant decrease
[8]
  Neuroprotection against okadaic acid (OA) toxicity: rescue from the toxic effect of OA
[1]
  CNS prediction: CNS- (CNS‐ (red) for compounds with Pe <1.88×10^−6 cm s^−1)
  Pe exp: 0 10-6 cm s-1

Source: PMC8457121, “From Kinase Inhibitors to Multitarget Ligands as Powerful Drug Leads for Alzheimer's Disease using Protein‐Templated Synthesis” (Angewandte Chemie (International Ed. in English), 2021)
